The results in this text go back to patent US9346786B2, “Pyrrolidine compounds” (Hoffmann-La Roche Inc., priority 2009, dated 2016).

In this assay the target is recombinant human NK3 receptor (Homo sapiens (Human), UniProt P29371). Put plainly: biochemical. In kind it is binding. To be noted: read-out: Data Ki (hNK-3 receptor affinity). The procedure: [^3H]SR142801 Competition Binding Assay
hNK3 receptor binding experiment were performed using [^3H]SR142801 (Catalog No. TRK1035, specific activity: 74.0 Ci/mmol, Amersham, GE Healthcare UK limited, Buckinghamshire, UK) and membrane isolated from HEK293 cells transiently expressing recombinant human NK3 receptor. After thawing, the membrane homogenates were centrifuged at 48,000×g for […] at 4° C., the pellets were resuspended in the 50 mM Tris-HCl, 4 mM MnCl2, 1 μM phosphoramidon, 0.1% BSA binding buffer at pH 7.4 to a final assay concentration of 5 μg protein/well. For inhibition experiments, membranes were incubated with [^3H]SR142801 at a concentration equal to KD value of radioligand and 10 concentrations of the inhibitory compound (0.0003-10 μM) (in a total reaction volume of 500 μl) for 75 min at room temperature (RT). At the end of the incubation, membranes were filtered onto unitfilter (96-well white microplate with bonded GF/C filter preincubated 1 h in 0.3% PEI+0.3% BSA, Packard BioScience, Meriden, Conn.) with a Filtermate 196 harvester (Packard BioScience) and washed 4 times with ice-cold 50 mM Tris-HCl, pH 7.4 buffer. Nonspecific binding was measured in the presence of 10 μM SB222200 for both radioligands. The radioactivity on the filter was counted (5 min) on a Packard Top-count microplate scintillation counter with quenching correction after addition of 45 μl of microscint 40 (Canberra Packard S.A., Zürich, Switzerland) and shaking for 1 h. Inhibition curves were fitted according to the Hill equation: y=100/(1+(x/IC50)^nH), where nH=slope factor using Excel-fit 4 software (Microsoft). IC50 values were derived from the inhibition curve and the affinity constant (Ki) values were calculated using the Cheng-Prussoff equation Ki=IC50/(1+[L]/KD) where [L] is the concentration of radioligand and KD is its dissociation constant at the receptor, derived from the saturation isotherm. All experiments were performed in duplicate and the mean±standard error (SEM) of the individual Ki values was calculated.

Setting [1] is: [3H]SR142801, membranes of HEK293 cells transiently expressing recombinant human NK3 receptor.

Where two headings read alike, the source gives them in different places.

Chain of recombinant human NK3 receptor (P29371 whole entry): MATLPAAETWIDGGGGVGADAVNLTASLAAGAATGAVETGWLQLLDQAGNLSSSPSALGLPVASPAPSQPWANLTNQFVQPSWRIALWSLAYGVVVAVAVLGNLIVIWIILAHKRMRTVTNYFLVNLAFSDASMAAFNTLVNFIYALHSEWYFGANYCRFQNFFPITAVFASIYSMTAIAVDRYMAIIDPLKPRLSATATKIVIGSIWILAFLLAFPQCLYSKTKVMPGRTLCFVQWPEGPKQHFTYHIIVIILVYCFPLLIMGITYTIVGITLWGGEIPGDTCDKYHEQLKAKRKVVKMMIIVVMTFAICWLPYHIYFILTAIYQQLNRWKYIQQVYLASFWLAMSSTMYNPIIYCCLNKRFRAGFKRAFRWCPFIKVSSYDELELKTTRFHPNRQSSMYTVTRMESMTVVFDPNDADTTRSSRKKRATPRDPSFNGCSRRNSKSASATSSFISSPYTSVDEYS

For `CCN(C(=O)Oc1ccc(F)cc1)[C@@H]1CN(C(=O)C2CCN(c3cc(C#N)ccn3)CC2)C[C@H]1c1ccc(Cl)cc1` [Example 15, [(3S,4R)-4-(4-Chloro-phenyl)-1-(4′-cyano-3,4,5,6-tetrahydro-2H-[1,2′]bipyridinyl-4-carbonyl)-pyrrolidin-3-yl]-ethyl-carbamic acid 4-fluoro-phenyl ester], the inhibition constant (Ki) came to 8 nM.
Same read-out and setting: with `CCN(C(=O)Oc1ccc(F)cc1)[C@@H]1CN(C(=O)C2CCN(c3ccc(Cl)cn3)CC2)C[C@H]1c1ccc(F)cc1` [Example 36, [(3S,4R)-1-(5′-Chloro-3,4,5,6-tetrahydro-2H-[1,2′]bipyridinyl-4-carbonyl)-4-(4-fluoro-phenyl)-pyrrolidin-3-yl]-ethyl-carbamic acid 4-fluoro-phenyl ester] the figure was 10 nM.
On to `CC(=O)c1ccc(N2CCC(C(=O)N3C[C@@H](N(C(=O)Oc4ccc(F)cc4)C4CC4)[C@H](c4ccc(Cl)cc4)C3)CC2)nc1` [Example 30, [(3S,4R)-1-(5′-Acetyl-3,4,5,6-tetrahydro-2H-[1,2′]bipyridinyl-4-carbonyl)-4-(4-chloro-phenyl)-pyrrolidin-3-yl]-cyclopropyl-carbamic acid 4-fluoro-phenyl ester], for which the Ki under setting [1] worked out at 35 nM.
Same read-out and setting: the value for `CC(C)N(C(=O)Oc1ccc(F)cc1)[C@H]1CN(C(=O)C2CCN(c3ccc(C#N)cn3)CC2)C[C@@H]1c1ccc(Cl)cc1` [Example 28, [(3R,4S)-4-(4-Chloro-phenyl)-1-(5′-cyano-3,4,5,6-tetrahydro-2H-[1,2′]bipyridinyl-4-carbonyl)-pyrrolidin-3-yl]-isopropyl-carbamic acid 4-fluoro-phenyl ester] was 50 nM; that for `CCN(C(=O)Oc1ccc(F)cc1)[C@@H]1CN(C(=O)C2CCN(C(=O)C3CCC3)CC2)C[C@H]1c1ccc(Cl)c(F)c1` [Example 67, [(3S,4R)-4-(4-Chloro-3-fluoro-phenyl)-1-(1-cyclobutanecarbonyl-piperidine-4-carbonyl)-pyrrolidin-3-yl]-ethyl-carbamic acid 4-fluoro-phenyl ester] was 2 nM; that for `CCN(C(=O)Oc1ccc(F)cc1)[C@@H]1CN(C(=O)C2CCN(C(=O)c3ccc(C(F)(F)F)cn3)CC2)C[C@H]1c1ccc(Cl)c(F)c1` [Example 74, {(3S,4R)-4-(4-Chloro-3-fluoro-phenyl)-1-[1-(5-trifluoromethyl-pyridine-2-carbonyl)-piperidine-4-carbonyl]-pyrrolidin-3-yl}-ethyl-carbamic acid 4-fluoro-phenyl ester] was 12 nM.
Turning to `N#Cc1ccc(N2CCC(C(=O)N3C[C@@H](N(C(=O)Oc4ccc(F)cc4)C4CC4)[C@H](c4ccc(Cl)cc4)C3)CC2)nc1` [Example 29, [(3S,4R)-4-(4-Chloro-phenyl)-1-(5′-cyano-3,4,5,6-tetrahydro-2H-[1,2′]bipyridinyl-4-carbonyl)-pyrrolidin-3-yl]-cyclopropyl-carbamic acid 4-fluoro-phenyl ester], the Ki under setting [1] was 12 nM.
On the same count and under the same terms, with `CC(=O)c1ccc(N2CCC(C(=O)N3C[C@@H](N(C(=O)Oc4ccc(F)cc4)C(C)C)[C@H](c4ccc(Cl)cc4)C3)CC2)nc1` [Example 24, [(3S,4R)-1-(5′-Acetyl-3,4,5,6-tetrahydro-2H-[1,2′]bipyridinyl-4-carbonyl)-4-(4-chloro-phenyl)-pyrrolidin-3-yl]-isopropyl-carbamic acid 4-fluoro-phenyl ester] the figure was 62 nM.
Same read-out and setting: with `CCN(C(=O)Oc1ccc(F)cc1)[C@@H]1CN(C(=O)C2CCN(c3ccc(C#N)nc3)CC2)C[C@H]1c1ccc(Cl)c(F)c1` [Example 43, [(3S,4R)-4-(4-Chloro-3-fluoro-phenyl)-1-(6′-cyano-3,4,5,6-tetrahydro-2H-[1,3′]bipyridinyl-4-carbonyl)-pyrrolidin-3-yl]-ethyl-carbamic acid 4-fluoro-phenyl ester] the figure was 0.3 nM.
